Values quoted from earlier work in US20120270995A1, “AQUEOUS FORMULATIONS INCLUDING DIOXOLANES AS COUPLING AGENTS” (RHODIA POLIAMIDA E ESPECIALIDADES LTDA, priority 2009, published 2012).
Where two headings read alike, the source gives them in different places.

Legend:
[1] = in vivo
[2] = not given; remark: listed apart in the source
[3] = in vivo; remark: listed apart in the source
[4] = in vivo; remark: listed apart in the source
[5] = CMR = carcinogenic/mutagenic/reproductively toxic

Compound | Vapour point (20° C.) [mmHg] | Eye irritation [1] | Acute oral toxicity [2] | Aquatic toxicity [3] | Skin irritation [4] | Vapour point (25° C.) [mmHg] | CMR [5] | Vapour point (37.8° C.) [mmHg]
CCCCOCCO [Butylglycol] | 0.8 |  |  |  |  |  |  | 
CCCCOCCOC(C)=O [Butylglycol acetate] | 0.4 | weak | 2360 mg/kg | 103.17 mg/L | weak |  |  | 
CCOCCO [Ethylglycol] |  | weak | 3000 mg/kg | 5000 mg/L | moderate | 5.3 | cat. 2 | 
CCOCCOC(C)=O [Ethylglycol acetate] | 2.0 | severe | 2900 mg/kg | 244.66 mg/L | severe |  | cat. 2 | 
CCOCCOCCO [Ethyldiglycol] |  | severe | 5500 mg/kg | 13 400 mg/l | severe | 0.1 |  | 
Methylglycol | 6.2 | severe | 18 000 mg/kg | 18 000 mg/l | weak |  |  | 
CC1(C)OCC(CO)O1 (stereo not drawn) [Solketal, 2,2-Dimethyl-1,3-dioxolane-4-methanol] |  | moderate | 7000 mg/kg | >1000 mg/L | moderate |  |  | 52.0
